Read-outs that look alike come from different tables or passages of the source.

Common to all, as to assay type: cell-based
Assay [1] addresses T1, hTLR7 (Homo sapiens, UniProt Q9NYK1).
T1 construct: host or cells: HEK-Blue hTLR7 reporter cells (HEK293-derived, own knowledge)
T1 sequence (Q9NYK1 27-1049): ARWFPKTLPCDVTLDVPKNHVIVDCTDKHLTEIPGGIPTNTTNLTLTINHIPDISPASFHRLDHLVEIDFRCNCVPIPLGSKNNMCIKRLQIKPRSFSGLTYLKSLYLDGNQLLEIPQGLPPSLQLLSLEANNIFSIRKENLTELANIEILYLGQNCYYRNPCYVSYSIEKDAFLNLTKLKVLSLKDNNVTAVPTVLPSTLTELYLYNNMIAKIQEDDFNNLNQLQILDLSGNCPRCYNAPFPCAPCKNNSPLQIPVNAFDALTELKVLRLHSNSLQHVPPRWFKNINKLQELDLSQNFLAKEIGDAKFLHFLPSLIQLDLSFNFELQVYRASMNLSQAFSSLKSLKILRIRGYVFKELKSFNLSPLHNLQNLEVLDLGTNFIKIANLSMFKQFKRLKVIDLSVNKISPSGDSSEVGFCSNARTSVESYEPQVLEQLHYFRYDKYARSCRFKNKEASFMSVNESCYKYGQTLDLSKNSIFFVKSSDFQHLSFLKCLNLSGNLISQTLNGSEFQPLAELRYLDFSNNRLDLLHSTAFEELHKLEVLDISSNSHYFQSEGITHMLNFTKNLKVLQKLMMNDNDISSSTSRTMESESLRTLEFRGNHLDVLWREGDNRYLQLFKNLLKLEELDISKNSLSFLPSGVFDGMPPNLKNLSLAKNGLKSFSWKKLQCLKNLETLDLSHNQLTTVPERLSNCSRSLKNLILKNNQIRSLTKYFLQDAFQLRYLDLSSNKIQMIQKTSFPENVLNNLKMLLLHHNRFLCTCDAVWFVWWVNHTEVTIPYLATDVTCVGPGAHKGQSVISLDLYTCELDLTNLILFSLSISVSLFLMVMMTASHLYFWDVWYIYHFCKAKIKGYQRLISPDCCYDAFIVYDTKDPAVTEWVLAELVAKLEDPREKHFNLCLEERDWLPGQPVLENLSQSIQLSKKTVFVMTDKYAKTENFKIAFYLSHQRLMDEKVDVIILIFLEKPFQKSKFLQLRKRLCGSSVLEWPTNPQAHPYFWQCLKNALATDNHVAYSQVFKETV
Description: Reporter Gene Assay (RGA), HEK-Blue hTLR7 reporter cells, SEAP readout. The following applies: overnight incubation, SEAP absorbance 620 nm. As for the experimental part:
(§1) 1.5×10^4 HEK-Blue™ hTLR7 (Invivogen, San Diego, CA) or HEK-Blue™ mTLR7 (Invivogen, San Diego, CA) reporter cells were treated with a titration series of test compound (4-fold titration from […], 11 points). Compounds were initially diluted to 1 mM in DMSO and subsequently serial-diluted in assay media (HEK-Blue™ Detection; Invivogen, San Diego, CA). Cells with test compound were incubated overnight at 37° C.+5% CO2, and the amount of secreted embryonic alkaline phosphatase (SEAP) was determined by measuring absorbance (620 nm) using a Synergy™ H1 microplate reader.
(§2) Each assay included a positive control compound (referred to herein as “benchmark,” see, e.g., TABLE 3 below, and taken from International Patent Publication No. WO2017/072662, structure shown below) and a negative control (growth medium). […] The structure of the benchmark compound from International Patent Publication No. WO 2017/072662 is as follows: […]
On the technique in general: A reporter such as luciferase makes a cellular process visible.

For assay [2], the target named is T2, mTLR7 (Mus musculus, UniProt P58681).
T2 construct: host or cells: HEK-Blue mTLR7 reporter cells (HEK293-derived, own knowledge)
T2 sequence (P58681 27-1050): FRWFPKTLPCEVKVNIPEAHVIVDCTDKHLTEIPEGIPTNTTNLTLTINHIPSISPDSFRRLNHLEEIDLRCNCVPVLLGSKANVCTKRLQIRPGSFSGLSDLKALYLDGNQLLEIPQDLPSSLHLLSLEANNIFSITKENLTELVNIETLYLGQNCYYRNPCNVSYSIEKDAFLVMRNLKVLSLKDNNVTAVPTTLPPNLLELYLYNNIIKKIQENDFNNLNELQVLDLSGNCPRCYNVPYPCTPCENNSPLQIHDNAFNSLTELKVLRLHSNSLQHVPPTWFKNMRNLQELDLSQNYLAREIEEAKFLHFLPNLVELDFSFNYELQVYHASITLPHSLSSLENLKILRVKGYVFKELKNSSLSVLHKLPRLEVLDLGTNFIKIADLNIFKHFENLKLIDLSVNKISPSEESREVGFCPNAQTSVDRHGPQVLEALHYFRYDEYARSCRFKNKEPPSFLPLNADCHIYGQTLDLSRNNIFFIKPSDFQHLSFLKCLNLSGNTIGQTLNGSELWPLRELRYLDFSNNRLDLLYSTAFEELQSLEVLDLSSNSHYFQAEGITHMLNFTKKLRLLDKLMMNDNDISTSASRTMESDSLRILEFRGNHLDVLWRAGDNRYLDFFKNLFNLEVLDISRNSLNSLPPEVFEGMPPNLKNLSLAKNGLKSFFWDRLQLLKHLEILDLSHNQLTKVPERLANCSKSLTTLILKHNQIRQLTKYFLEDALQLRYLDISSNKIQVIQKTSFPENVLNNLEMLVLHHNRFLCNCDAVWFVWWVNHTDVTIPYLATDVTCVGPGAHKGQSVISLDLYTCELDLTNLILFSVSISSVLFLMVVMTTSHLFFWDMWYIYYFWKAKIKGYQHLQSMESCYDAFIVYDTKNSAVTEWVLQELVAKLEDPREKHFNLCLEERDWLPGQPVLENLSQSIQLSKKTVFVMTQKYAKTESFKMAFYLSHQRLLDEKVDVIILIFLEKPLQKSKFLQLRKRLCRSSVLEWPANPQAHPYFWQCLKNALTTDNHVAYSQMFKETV
The experiment in a line: Reporter Gene Assay (RGA), HEK-Blue mTLR7 reporter cells, SEAP readout. Conditions: overnight incubation, SEAP absorbance 620 nm. On the procedure: as §1, §2

In assay [3] the test system is Human peripheral blood mononuclear cells (PBMCs). The experiment in a line: Human PBMC Assay, cytokine release (HTRF). The following applies: PBMC, 24 hours.
From the text: Human peripheral blood mononuclear cells (PBMCs) were isolated from fresh Leukopak using magnetic separation. Briefly, erythrocytes and granulocytes were magnetically labeled with Erythrocyte Depletion MicroBeads (Miltenyi Biotec) and Granulocyte Depletion MicroBeads (Miltenyi Biotec), respectively. The cell suspension was loaded onto a Multi-24 Column Block (Miltenyi Biotec) and placed in the magnetic field of a MultiMACS Cell24 Separator Plus (Miltenyi Biotec). The unlabelled PBMCs were collected in the run through. PBMCs were resuspended in CryoStor® CS10 ([…]) and frozen. On the day before the assay, PBMCs were thawed in warm assay buffer (RPMI+10% FBS) and resuspended in assay buffer+10 ng/ml hIL3 (R&D Systems). Cells were rested at 37° C.+5% CO2 overnight. The following day, cells were spun down and resuspended in fresh assay buffer. 300,000 cells were added to each well of plates containing test compound. For test compound preparation, each compound was initially diluted to 1 mM in DMSO and further diluted in assay buffer. A 4-fold 11-point titration starting from 15 μM was performed. Cells were incubated with test compound at 37° C.+5% CO2 for 24 hours before supernatant was harvested. Human interleukin 6 (hIL6), human tumor necrosis factor alpha (hTNFα), and human interferon alpha (hIFNα) were quantified in the supernatant using homogeneous time resolved fluorescence (Cisbio).
as §2

Assay [4] relates to Mouse splenocytes. Description: Mouse Splenocyte Assay, cytokine release (HTRF). Conditions: 24 hours, mIL6 in supernatant; for EC50: Splenocyte, read-out: Splenocyte IL6 EC50. On the procedure: Mouse splenocytes were isolated from fresh mouse spleens. Briefly, spleens were harvested from female balb/c nude mice and transferred to a 70 μm cell strainer. The cell strainer was subsequently placed in a 6-well suspension culture plate containing 5 mL media (RPMI+10% FBS). The spleens were crushed against the cell strainer using the flat end of a 10 mL syringe plunger and the cell strainer was washed with 5 mL media. The cell strainer was discarded, and the cell suspension was washed in PBS. Red blood cells were removed using PharmaLyse (BD). The cell suspension was washed in media, resuspended in CryoStor® CS10 ([…]) and frozen. On assay day, mouse splenocytes were thawed in warm assay buffer (RPMI+10% FBS). Cells were spun down and resuspended in fresh assay buffer. 100,000 cells were added to each well of plates containing test compound. For test compound preparation, each compound was initially diluted to 1 mM in DMSO and further diluted in assay buffer. A 4-fold 11-point titration starting from 15 μM was performed. Cells were incubated with test compound at 37° C.+5% CO2 for 24 hours before supernatant was harvested. Murine IL6 (mIL6) and murine TNFα (mTNFα) were quantified in the supernatant using homogeneous time resolved fluorescence (Cisbio).
as §2
In general terms: Time-resolved FRET reads energy transfer from a long-lived donor to a nearby acceptor.

The mark [5] stands for this setting: hIL6 in supernatant, read-out: PBMC IL6 EC50.
Setting [6] is: hIFNα in supernatant, EC50 values approximated and divided into groups, read-out: PBMC IFNa EC50.

As for `CCCCCNc1nc(N)c2nc(O)n(Cc3ccc(CNCCN4CCNCC4)cc3)c2n1` [Compound 195, 6-amino-2-(pentylamino)-9-(4-(((2-(piperazin-1-yl)ethyl)amino)methyl)-benzyl)-9H-purin-8-ol], the concentration giving a half-maximal response (EC50) (usually the concentration giving half of the maximal effect) in assay [1] came to 1750 nM; in assay [2], 127 nM; in assay [3] (setting [5]) it was 791 nM; in assay [4], 1000 nM.
As to `CCOc1nc(N)c2nc(O)n(Cc3ccc(CNCc4ccccc4)cc3OC)c2n1` [Compound 107, 6-amino-9-(4-((benzylamino)methyl)-2-methoxybenzyl)-2-ethoxy-9H-purin-8-ol], the EC50 in assay [1] is 13 nM; in assay [2] it was 0.3 nM; in assay [3] (setting [6]) it was 0.1 to 1 nM; in assay [3] (setting [5]), 2720 nM; in assay [4] it was 33.3 nM.
As to `CCOc1nc(N)c2nc(O)n(Cc3ccc(CNCc4ccc(CN5CCOCC5)cc4)cc3OC)c2n1` [Compound 142, 6-amino-2-ethoxy-9-(2-methoxy-4-(((4-(morpholinomethyl)benzyl)amino)-methyl)benzyl)-9H-purin-8-ol], the half-maximal effective concentration (EC50) in assay [1] is 2.6 nM; in assay [2], 14.6 nM; in assay [3] (setting [6]) it was under 0.1 nM; in assay [3] (setting [5]) it was 13.6 nM; in assay [4], 9.9 nM.
On to `CCCCCNc1nc(N)c2nc(O)n(Cc3ccc(CN(CC)CC)cc3)c2n1` [Compound 185, 6-amino-9-(4-((diethylamino)methyl)benzyl)-2-(pentylamino)-9H-purin-8-ol], for which the EC50 in assay [1] was 10 nM; in assay [2], 1 nM; in assay [3] (setting [6]) it was 1 to 10 nM; in assay [3] (setting [5]) it was 12.6 nM; in assay [4] it was 20.4 nM.
With `CCOc1nc(N)c2nc(O)n(Cc3ccc(CNCCCCN)cc3OC)c2n1` [Compound 106, 6-amino-9-(4-(((4-aminobutyl)amino)methyl)-2-methoxybenzyl)-2-ethoxy-9H-purin-8-ol], the EC50 is 348 nM in assay [1]; 94.1 nM in assay [2]; 1 to 10 nM in assay [3] (setting [6]); 688 nM in assay [3] (setting [5]); 2060 nM in assay [4].
Regarding `CCOc1nc(N)c2nc(O)n(Cc3ccc(CN4CCC(N)CC4)cc3F)c2n1` [Compound 153, 6-amino-9-(4-((4-aminopiperidin-1-yl)methyl)-2-fluorobenzyl)-2-ethoxy-9H-purin-8-ol], the EC50 was 6.1 nM in assay [1], 263 nM in assay [2], over 10 nM in assay [3] (setting [6]) and 39 nM in assay [3] (setting [5]). For the same molecule, the “Splenocyte IL6 EC50 (nM)” value in assay [4] is “inactive”.
Turning to `CCCCCNc1nc(N)c2nc(O)n(Cc3ccc(CN)cc3)c2n1` [Compound 183, 6-amino-9-(4-(aminomethyl)benzyl)-2-(pentylamino)-9H-purin-8-ol], the concentration for a half-maximal effect (EC50) in assay [1] is 145 nM; in assay [2], 60.6 nM; in assay [3] (setting [6]) it was over 10 nM; in assay [3] (setting [5]) it was 291 nM; in assay [4], 235 nM.
In the same order, the values of `CCOc1nc(N)c2nc(O)n(Cc3ccc(CNCCCCCO)cc3OC)c2n1` [Compound 103, 6-amino-2-ethoxy-9-(4-(((5-hydroxypentyl)amino)methyl)-2-methoxy-benzyl)-9H-purin-8-ol] are 138 nM, 27.4 nM, 0.1 to 1 nM, 9270 nM and 1330 nM.
For the molecule `CCOc1nc(N)c2nc(O)n(Cc3ccc(CN4CCNCC4)nc3)c2n1` [Compound 192, 6-amino-2-ethoxy-9-((6-(piperazin-1-ylmethyl)pyridin-3-yl)methyl)-9H-purin-8-ol], the EC50 in assay [1] is 51.4 nM; in assay [2], 681 nM; in assay [3] (setting [6]), over 10 nM; in assay [3] (setting [5]), 202 nM. The “Splenocyte IL6 EC50 (nM)” value in assay [4] was “inactive”.
In the case of `CCOc1nc(N)c2nc(O)n(Cc3ccc(CN4CCC(CN)CC4)cc3OC)c2n1` [Compound 132, 6-amino-9-(4-((4-(aminomethyl)piperidin-1-yl)methyl)-2-methoxybenzyl)-2-ethoxy-9H-purin-8-ol], the half-maximal effective concentration (EC50) in assay [1] was 5.8 nM; in assay [2], 65.1 nM; in assay [3] (setting [6]) it was over 10 nM; in assay [3] (setting [5]) it was 116 nM; in assay [4], 234 nM.

The record behind these values is patent US20250170266A1 (ZYMEWORKS BC INC., priority 2022, published 2025).
